Patent publication US7723320B2, “Use of estrogen compounds to increase libido in women” (Pantarhei Bioscience B.V., priority 2001, dated 2010)
Like-named read-outs stand apart in the source and are kept apart here.

How the values were obtained:
[1] = tritium labeled, intravenous, two adult women; cited from earlier work
[2] = target: T1, estrogen receptor in the human endometrium (Homo sapiens, UniProt P03372); conditions: Tseng et al., 1976; cited from earlier work
T1 construct: estrogen receptors in the human endometrium; host or cells: human endometrium (nuclei)
T1 sequence (P03372 1-595): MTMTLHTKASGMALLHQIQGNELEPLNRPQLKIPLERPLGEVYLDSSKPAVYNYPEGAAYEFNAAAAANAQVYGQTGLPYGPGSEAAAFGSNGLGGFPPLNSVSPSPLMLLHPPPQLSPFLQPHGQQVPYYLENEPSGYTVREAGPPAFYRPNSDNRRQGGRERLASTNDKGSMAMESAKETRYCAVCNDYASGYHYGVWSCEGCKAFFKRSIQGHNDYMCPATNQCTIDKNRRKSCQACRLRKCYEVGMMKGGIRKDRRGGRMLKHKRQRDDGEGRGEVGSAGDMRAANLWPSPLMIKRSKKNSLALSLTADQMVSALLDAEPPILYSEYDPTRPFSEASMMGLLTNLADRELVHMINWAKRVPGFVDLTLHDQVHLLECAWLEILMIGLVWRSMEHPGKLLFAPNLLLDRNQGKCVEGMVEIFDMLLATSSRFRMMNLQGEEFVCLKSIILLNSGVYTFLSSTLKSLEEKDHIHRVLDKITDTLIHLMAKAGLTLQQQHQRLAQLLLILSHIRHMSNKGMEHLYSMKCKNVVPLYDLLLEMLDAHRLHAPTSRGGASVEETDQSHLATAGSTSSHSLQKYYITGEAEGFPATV

[3] = target: T2, rat uterine nuclear estrogen receptor (Rattus norvegicus, UniProt P06211); conditions: cited from earlier work
T2 construct: rat uterine cytosol estrogen receptor; host or cells: rat uterus (cytosol / nuclear fraction)
T2 sequence (P06211 1-600): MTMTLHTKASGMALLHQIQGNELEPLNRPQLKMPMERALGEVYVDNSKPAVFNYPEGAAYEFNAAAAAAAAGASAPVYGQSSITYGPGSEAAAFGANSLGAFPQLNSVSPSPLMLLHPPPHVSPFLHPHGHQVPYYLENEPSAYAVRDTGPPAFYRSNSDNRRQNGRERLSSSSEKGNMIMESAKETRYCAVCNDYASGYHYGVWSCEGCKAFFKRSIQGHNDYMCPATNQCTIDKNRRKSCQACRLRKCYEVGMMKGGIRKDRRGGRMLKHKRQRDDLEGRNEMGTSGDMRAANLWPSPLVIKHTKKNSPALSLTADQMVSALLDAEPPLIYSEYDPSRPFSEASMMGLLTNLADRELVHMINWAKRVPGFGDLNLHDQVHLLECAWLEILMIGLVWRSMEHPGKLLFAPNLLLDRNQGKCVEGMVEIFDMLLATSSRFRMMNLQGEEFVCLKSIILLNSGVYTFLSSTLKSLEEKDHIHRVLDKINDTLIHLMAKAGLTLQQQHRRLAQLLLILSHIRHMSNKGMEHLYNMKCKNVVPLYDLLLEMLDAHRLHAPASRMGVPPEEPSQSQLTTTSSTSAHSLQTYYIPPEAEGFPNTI

immature rat uterus = conditions: subcutaneously administered, Holinka et al., cited from earlier work
[4] = target: T3, human sex Hormone Binding Globulin (SHBG) (Homo sapiens, UniProt P04278); test: Competitive steroid-binding assay, SHBG; conditions: [3H]DHT or [3H]estradiol as labeled ligands
T3 construct: made in house; host or cells: transgenic mouse (purified from serum)
T3 sequence (P04278 30-402): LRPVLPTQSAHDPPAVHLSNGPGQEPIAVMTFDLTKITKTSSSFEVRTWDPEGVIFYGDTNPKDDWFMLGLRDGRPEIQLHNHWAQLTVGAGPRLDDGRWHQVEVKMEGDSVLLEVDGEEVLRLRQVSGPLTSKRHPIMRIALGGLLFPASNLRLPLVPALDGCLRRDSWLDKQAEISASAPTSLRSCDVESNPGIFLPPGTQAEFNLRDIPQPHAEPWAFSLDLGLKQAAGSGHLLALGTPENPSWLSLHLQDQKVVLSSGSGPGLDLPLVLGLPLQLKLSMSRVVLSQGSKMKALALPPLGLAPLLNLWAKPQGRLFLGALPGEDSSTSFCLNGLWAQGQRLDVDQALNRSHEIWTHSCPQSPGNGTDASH
Protocol: Human SHBG was treated for 30 min at room temperature with a dextran-coated charcoal (DCC) suspension in phosphate buffered saline (PBS) to remove any steroid ligand. After centrifugation (2,000×g for 10 min) to sediment the DCC, the supernatant containing the human SHBG was diluted in PBS to a concentration of 1 nM based on its steroid binding capacity.
The average amounts of [^3H]labeled ligands bound to SHBG at each concentration of competitor (B) were expressed as a percentage of the average amounts of [^3H]labeled ligands bound to SHBG in the absence of competitor (B0), and were plotted against the concentration of competitor in each assay tube.

[5] = system: estrogen receptors in the human endometrium; conditions: Tseng et al., 1978; cited from earlier work
[6] = Single dose po/sc bioavailability and elimination half-life study; assay type: in vivo; conditions: rat, plasma, female Sprague Dawley rats; for bioavailability: po
Protocol: To evaluate the oral (po) and subcutaneous (sc) bioavailability of estetrol (E4) and to determine the elimination half-life, single dose studies were performed in female Sprague Dawley rats followed by frequent blood sampling over a 24 hours interval.
Female Sprague Dawley rats were equipped with a permanent silatic heart catheter, as described by Kuipers et al. (1985, Gastroenterology, 88, 403-411). Rats were allowed to recover from surgery for 5 days and were than administered 0.05, 0.5, or 5 mg/kg E4 in 0.5 ml arachis oil. For sc administration, E4 was injected in the neck area using a 1 ml syringe and 20 g needle. For po administration of E4, rats were lightly anaesthesized with halothene/N2O/O2 and E4 was directly applied intragastrically using a plastic stomach intubator. Blood samples were subsequently collected via the heart catheter in heparinized tubes at 0.5, 1, 2, 4, 8 and 24 hours. Erytlrocytes were removed by centrifugation at 5000×g for 10 minutes at 4° C. and blood plasma was stored at −20° C. After thawing the plasma samples, liquid-liquid extraction (hexane/diethylether) was employed to prepare the E4-containing plasma samples for HPLC analysis (Perkin Elmer 200) and tandem mass spectrometry using a PE Sciex 3000 tandem mass spectrometer and APCI interface. With each sample batch, a calibration curve with 6 calibrators was recorded. The calibration curve was calculated using linear regression (correlation coefficient>0.98), which permitted quantitation of plasma concentrations. For each rat plasma, sampled at different time intervals, data were collected.
Plasma E4 concentration data were analysed with “WinNonLin, edition 3.1” and involved pharmacokinetic parameters for Cmax, half-life and AUC0-24.

In the case of `C[C@]12CC[C@@H]3c4ccc(O)cc4CC[C@H]3[C@@H]1[C@@H](O)[C@@H](O)[C@@H]2O` [E4, 1,3,5(10)-estratrien-3,15α,16α,17β-tetrol], the excretion [1] is listed as “rapidly and completely excreted in urine as the glucosiduronate”, the metabolism [1] is listed as “virtually no metabolism except for conjugation” and the “relative binding constant compared to 17β-estradiol (100%)” value [2] is listed as 6.25%. For the same compound, the “relative binding affinity, of 17β-estradiol (100%)” value [3] was 0.3%, the uterotrophic activity (immature rat uterus; 1979) was “very weak uterotrophic activity” and the uterotrophic activity (immature rat uterus; 1980) was “very weak uterotrophic activity”. For the same compound, the “relative binding affinity for human SHBG” value [4] was “does not bind at all”, the “relative binding to estrogen receptors, of 17β-estradiol” value [5] was 1.5% and the half-life ([6]; other: subcutaneous and oral, sc and po single dose) was 120 to 180 min. It also gave a bioavailability ([6]; single dose 5.0 mg/kg, read-out: oral bioavailability relative to sc administered E4) of 30 to 60% and a bioavailability ([6]; single dose 0.05, 0.5 mg/kg, read-out: oral bioavailability relative to sc administration) of 80 to 100%.
